From patent US20250171431A1, “HETEROCYCLIC INHIBITORS OF IGF-1R FOR TREATMENT OF DISEASE” (HORIZON THERAPEUTICS IRELAND DAC, priority 2023, published 2025)

Tests used:
[1] = target: T1, IGF-1R (Homo sapiens (Human), UniProt P08069); assay: Example B-1: IGF-1R Assay (PC3 cells, IGF1 stimulation, AlphaLISA); assay type: cell-based; conditions: 200 ng/mL IGF1 stimulation, read-out: Biological Activity against IGF-1R IC50
In short: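 PC3 cells were serum-starved 2 h, treated with serially diluted compounds for 2 h, then stimulated with IGF1 (200 ng/mL final) for 30 min. Lysates were read by AlphaLISA; % inhibition was calculated relative to vehicle and EC80 controls, with IC50 values binned into ranges.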
Target sequence in this assay (P08069 31-1367): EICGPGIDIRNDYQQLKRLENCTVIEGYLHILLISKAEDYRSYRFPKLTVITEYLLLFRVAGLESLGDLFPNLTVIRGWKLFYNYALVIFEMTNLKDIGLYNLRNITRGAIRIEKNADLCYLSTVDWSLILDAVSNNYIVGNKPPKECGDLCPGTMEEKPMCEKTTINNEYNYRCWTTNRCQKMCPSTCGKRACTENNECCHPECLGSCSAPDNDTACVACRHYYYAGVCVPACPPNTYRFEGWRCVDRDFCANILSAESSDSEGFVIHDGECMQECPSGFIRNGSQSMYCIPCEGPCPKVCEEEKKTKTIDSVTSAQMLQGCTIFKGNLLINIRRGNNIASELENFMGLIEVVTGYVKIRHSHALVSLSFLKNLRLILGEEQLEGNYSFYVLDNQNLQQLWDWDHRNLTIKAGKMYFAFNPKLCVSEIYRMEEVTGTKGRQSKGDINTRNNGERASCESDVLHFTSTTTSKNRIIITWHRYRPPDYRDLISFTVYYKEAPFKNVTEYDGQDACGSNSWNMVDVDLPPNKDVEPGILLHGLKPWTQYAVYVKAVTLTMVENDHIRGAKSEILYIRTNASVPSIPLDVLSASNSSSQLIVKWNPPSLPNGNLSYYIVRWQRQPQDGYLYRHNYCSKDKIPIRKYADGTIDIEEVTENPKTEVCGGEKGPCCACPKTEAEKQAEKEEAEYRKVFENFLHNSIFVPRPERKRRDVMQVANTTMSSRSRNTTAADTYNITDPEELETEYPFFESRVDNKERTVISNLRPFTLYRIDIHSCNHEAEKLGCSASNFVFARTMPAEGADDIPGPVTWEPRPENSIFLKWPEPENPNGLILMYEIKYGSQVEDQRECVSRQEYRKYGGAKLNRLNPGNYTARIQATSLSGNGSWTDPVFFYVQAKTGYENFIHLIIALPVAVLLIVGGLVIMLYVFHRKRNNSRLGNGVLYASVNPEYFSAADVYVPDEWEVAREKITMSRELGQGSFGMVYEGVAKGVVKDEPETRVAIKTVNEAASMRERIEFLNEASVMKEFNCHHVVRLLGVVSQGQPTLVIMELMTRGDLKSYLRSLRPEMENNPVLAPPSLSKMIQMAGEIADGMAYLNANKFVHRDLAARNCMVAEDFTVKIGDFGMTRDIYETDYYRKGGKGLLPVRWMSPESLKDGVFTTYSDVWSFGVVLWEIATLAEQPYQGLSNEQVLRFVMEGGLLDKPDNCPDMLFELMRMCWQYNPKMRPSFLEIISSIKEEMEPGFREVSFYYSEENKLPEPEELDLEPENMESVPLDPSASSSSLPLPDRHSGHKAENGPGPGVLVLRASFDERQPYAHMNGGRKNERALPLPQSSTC

[2] = target: T1, IGF-1R; assay: Example B-2: IGF-1R Assay (PathHunter cell lines, EC80 agonist challenge); assay type: cell-based; conditions: read-out: IC50 (Biological Activity against IGF-1R)
Procedure: PathHunter cell lines were expanded from freezer stocks according to standard procedures. Cells were seeded in a total volume of 20 μL into white walled, 384-well microplates and incubated for the appropriate time prior to testing.
Cells are pre-incubated with compound followed by EC80 agonist challenge as follows: • 1. Intermediate dilution of sample stocks was performed to generate 5× sample in assay buffer. • 2. 5 μL of 5× sample was added to cells and incubated at 37° C. for 60 minutes. Vehicle concentration was 1%. • 3. 5 μL of 6×EC80 agonist in assay buffer was added to the cells and incubated at room temperature for 3 hours.
Assay signal was generated through a single addition of 12.5 or 15 μL (50% v/v) of PathHunter Detection reagent cocktail for agonist and antagonist assays respectively, followed by a one hour incubation at room temperature. Microplates were read following signal generation with a PerkinElmer Envision™ instrument for chemilumine-scent signal detection.
Compound activity was analyzed using CBIS data analysis suite (ChemInnovation, CA). Percentage inhibition was calculated using the following formula: % Inhibition=100%×(1−(mean RLU of test sample−mean RLU of vehicle control)/(mean RLU of EC80 control−mean RLU of vehicle control)). The activity for representative examples of the invention is shown in the following table, wherein A: IC50≤500 nM; B: 500 nM<IC50≤2 μM; C: […]≤10 μM; D: IC50>[…].
Target sequence in this assay (P08069 31-1367, species assumed): as the sequence (P08069 31-1367) above

| Compound | IC50 [1] [nM] | IC50 [2] [nM] |
| --- | --- | --- |
| COc1cc(Nc2nccc(Nc3cnc4ccccc4c3)n2)ccc1N1CCC(N2CCOCC2)CC1 [Compound 3, 2-[3-methoxy-4-(4-morpholino-1-piperidyl)phenylamino]-4-(3-quinolylamino)pyrimidine] | ≤ 500 | ≤ 500 |
| COc1cc(Nc2nccc(Nc3cnc4ccc(Cl)nc4c3)n2)ccc1O[C@H]1C[C@@H](N(C)C)C1 [Compound 10, 4-(6-chloro-1,5-diaza-3-naphthylamino)-2-{3-methoxy-4-[(1s,3s)-3-(dimethylamino)cyclobutoxy]phenylamino}pyrimidine] | ≤ 500 | 500 to 2000 |
| COc1cc(Nc2nccc(Nc3cnc4ccccc4c3)n2)ccc1O[C@H]1CC[C@H](N(C)C)CC1 [Compound 17, 2-{3-methoxy-4-[(1r,4r)-4-(dimethylamino)cyclohexyloxy]phenylamino}-4-(3-quinolylamino)pyrimidine] | ≤ 500 | ≤ 500 |
| COc1cc(Nc2nccc(Nc3cnc4ccccc4c3)n2)ccc1O[C@H]1C[C@@H](N2CCOCC2)C1 [Compound 21, 2-{3-methoxy-4-[(1s,3s)-3-morpholinocyclobutoxy]phenylamino}-4-(3-quinolylamino)pyrimidine] | ≤ 500 | ≤ 500 |
| COc1cc(Nc2nccc(Nc3cnc4c(c3)CCC3(CCC3)C4)n2)ccc1O[C@H]1C[C@H](N(C)C)C1 [Compound 77, 4-(6′,8′-dihydro-5′H-spiro[cyclobutane-1,7′-quinolin]-3′-ylamino)-2-{3-methoxy-4-[(1r,3r)-3-(dimethylamino)cyclobutoxy]phenylamino}pyrimidine] | ≤ 500 | ≤ 500 |
| CN(C)CC(=O)N1CCc2ccc(Nc3nccc(Nc4cnc5ccccc5c4)n3)cc21 [Compound 92, 2-(dimethylamino)-1-{6-[4-(3-quinolylamino)-2-pyrimidinylamino]-1-indolinyl}-1-ethanone] | ≤ 500 | ≤ 500 |
| COc1cc(Nc2nccc(Nc3cnc4ccccc4c3)n2)ccc1N1CCN(C)CC1 [Compound 94, 2-[3-methoxy-4-(4-methyl-1-piperazinyl)phenylamino]-4-(3-quinolylamino)pyrimidine] | ≤ 500 | ≤ 500 |
| COc1cc(Nc2nccc(Nc3cc4cc(Cl)ccc4[nH]c3=O)n2)ccc1O[C@H]1C[C@H](N(C)C)C1 [Compound 109, 6-chloro-3-(2-{3-methoxy-4-[(1r,3r)-3-(dimethylamino)cyclobutoxy]phenyl-amino}-4-pyrimidinylamino)-1,2-dihydro-2-quinolinone] | ≤ 500 | 500 to 2000 |
| COc1cc(Nc2nccc(Nc3cnc4cc(F)c(F)cc4c3)n2)ccc1O[C@H]1C[C@@H](N(C)C)C1 [Compound 115, 4-(6,7-difluoro-3-quinolylamino)-2-{3-methoxy-4-[(1s,3s)-3-(dimethylamino)cyclobutoxy]phenylamino}pyrimidine] | ≤ 500 | 500 to 2000 |
| COc1cc(Nc2nccc(Nc3cnc4c(Cl)cc(F)cc4c3)n2)ccc1O[C@H]1C[C@@H](N(C)C)C1 [Compound 116, 4-(8-chloro-6-fluoro-3-quinolylamino)-2-{3-methoxy-4-[(1s,3s)-3-(dimethylamino)cyclobutoxy]phenylamino}pyrimidine] | ≤ 500 | 500 to 2000 |
| CN(C)CC(=O)N1CCc2ccc(Nc3nccc(Nc4cnc5ccc(Cl)cc5c4)n3)cc21 [Compound 129, 1-(6-((4-((6-chloroquinolin-3-yl)amino)pyrimidin-2-yl)amino)indolin-1-yl)-2-(dimethylamino)ethan-1-one] | ≤ 500 | ≤ 500 |
| CN(C)CC(=O)N1CCc2ccc(Nc3nccc(Nc4cnc5ccc(Br)cc5c4)n3)cc21 [Compound 130, 1-(6-((4-((6-bromoquinolin-3-yl)amino)pyrimidin-2-yl)amino)indolin-1-yl)-2-(dimethylamino)ethan-1-one] | ≤ 500 | ≤ 500 |
| CN(C)CC1COc2cc(Nc3nccc(Nc4cnc5ccccc5c4)n3)ccc2O1 (centres unmarked) [Compound 135, N2-(2-((dimethylamino)methyl)-2,3-dihydrobenzo[b][1,4]dioxin-6-yl)-N4-(quinolin-3-yl)pyrimidine-2,4-diamine] | ≤ 500 | ≤ 500 |
| CN(C)CC1COc2cc(Nc3nccc(Nc4cnc5ccc(Cl)cc5c4)n3)ccc2O1 (centres unmarked) [Compound 136, N4-(6-chloroquinolin-3-yl)-N2-(2-((dimethylamino)methyl)-2,3-dihydrobenzo[b][1,4]dioxin-6-yl)pyrimidine-2,4-diamine] | ≤ 500 | ≤ 500 |
| CN(C)CC(=O)N1CCc2ncc(Nc3nccc(Nc4cnc5ccccc5c4)n3)cc21 [Compound 137, 2-(dimethylamino)-1-(6-((4-(quinolin-3-ylamino)pyrimidin-2-yl)amino)-2,3-dihydro-1H-pyrrolo[3,2-b]pyridin-1-yl)ethan-1-one] | ≤ 500 | ≤ 500 |
| CN(C)CC(=O)N1CCc2ccc(Nc3nccc(Nc4cnc5c(F)c(F)ccc5c4)n3)cc21 [Compound 138, 1-(6-((4-((7,8-difluoroquinolin-3-yl)amino)pyrimidin-2-yl)amino)indolin-1-yl)-2-(dimethylamino)ethan-1-one] | ≤ 500 | ≤ 500 |
| CN1CC(N2CCc3ccc(Nc4nccc(Nc5cnc6ccccc6c5)n4)cc32)C1 [Compound 139, N2-(1-(1-methylazetidin-3-yl)indolin-6-yl)-N4-(quinolin-3-yl)pyrimidine-2,4-diamine] | ≤ 500 | ≤ 500 |
| CN(C)CC1COc2ccc(Nc3nccc(Nc4cnc5ccccc5c4)n3)cc2O1 (centres unmarked) [Compound 140, N2-(3-((dimethylamino)methyl)-2,3-dihydrobenzo[b][1,4]dioxin-6-yl)-N4-(quinolin-3-yl)pyrimidine-2,4-diamine] | ≤ 500 | ≤ 500 |
| CN(C)CC(=O)N1CCc2ncc(Nc3nccc(Nc4cnc5ccc(Cl)cc5c4)n3)cc21 [Compound 141, 1-(6-((4-((6-chloroquinolin-3-yl)amino)pyrimidin-2-yl)amino)-2,3-dihydro-1H-pyrrolo[3,2-b]pyridin-1-yl)-2-(dimethylamino)ethan-1-one] | ≤ 500 | ≤ 500 |
| CN(C)CC1COc2ccc(Nc3nccc(Nc4cnc5ccc(Cl)cc5c4)n3)cc2O1 (centres unmarked) [Compound 142, N4-(6-chloroquinolin-3-yl)-N2-(3-((dimethylamino)methyl)-2,3-dihydrobenzo[b][1,4]dioxin-6-yl)pyrimidine-2,4-diamine] | 500 to 2000 | 500 to 2000 |
| CN(C)CCN1CCc2ccc(Nc3nccc(Nc4cnc5ccccc5c4)n3)cc21 [Compound 143, N2-(1-(2-(dimethylamino)ethyl)indolin-6-yl)-N4-(quinolin-3-yl)pyrimidine-2,4-diamine] | ≤ 500 | ≤ 500 |
| CN(C)C[C@H]1COc2cc(Nc3nccc(Nc4cnc5ccc(Cl)cc5c4)n3)ccc2O1 [Compound 144, (S)—N4-(6-chloroquinolin-3-yl)-N2-(2-((dimethylamino)methyl)-2,3-dihydrobenzo[b][1,4]dioxin-6-yl)pyrimidine-2,4-diamine] | ≤ 500 | ≤ 500 |
| CN(C)C[C@@H]1COc2cc(Nc3nccc(Nc4cnc5ccc(Cl)cc5c4)n3)ccc2O1 [Compound 145, (R)—N4-(6-chloroquinolin-3-yl)-N2-(2-((dimethylamino)methyl)-2,3-dihydrobenzo[b][1,4]dioxin-6-yl)pyrimidine-2,4-diamine] | ≤ 500 | ≤ 500 |
| CN(C)CC(=O)N1CCc2cc(Nc3nccc(Nc4cnc5ccc(Cl)cc5c4)n3)ccc21 [Compound 146, 1-(5-((4-((6-chloroquinolin-3-yl)amino)pyrimidin-2-yl)amino)indolin-1-yl)-2-(dimethylamino)ethan-1-one] | ≤ 500 | ≤ 500 |
| CN(C)CC(=O)N1CCc2ccc(Nc3nccc(Nc4cnc5cc(F)c(F)cc5c4)n3)cc21 [Compound 147, 1-(6-((4-((6,7-difluoroquinolin-3-yl)amino)pyrimidin-2-yl)amino)indolin-1-yl)-2-(dimethylamino)ethan-1-one] | 500 to 2000 | 500 to 2000 |
| COc1cc(Nc2nccc(Nc3cc4ccccc4nc3C(N)=O)n2)ccc1O[C@H]1C[C@@H](N(C)C)C1 [Compound 297, 3-(2-{3-methoxy-4-[(1s,3s)-3-(dimethylamino)cyclobutoxy]phenylamino}-4-pyrimidinylamino)-2-quinolinecarboxamide] | – | 500 to 2000 |
| COc1cc(N2CCN(C3COC3)CC2)ncc1Nc1ncc(F)c(Nc2cc3ccccc3nc2C(N)=O)n1 [Compound 495, 3-(5-fluoro-2-{4-methoxy-6-[4-(3-oxetanyl)-1-piperazinyl]-3-pyridylamino}-4-pyrimidinylamino)-2-quinolinecarboxamide] | ≤ 500 | – |
| O=S1(=O)CCN(CCCOc2ccc(Nc3nccc(Nc4cnc5c(c4)OCCO5)n3)cc2)CC1 [Compound 506, 4-(3-{p-[4-(2,3-dihydro-1,4-dioxa-5-aza-7-naphthylamino)-2-pyrimidinylamino]phenoxy}propyl)-1λ^6,4-thiazinane-1,1-dione] | ≤ 500 | – |
